Columns and labels:
[1] = system: A549-ACE2 infected with SARS-CoV-2; test: morphology score (similarity to uninfected cells); higher = more like uninfected cells; conditions: 24 h
[2] = system: A549-ACE2 infected with SARS-CoV-2; test: SARS-CoV-2 infection rate relative to DMSO; higher = more infection; conditions: 24 h
U2OS [3] = test: cell viability relative to DMSO; higher = less toxic; conditions: 72 h
Calu-3 [4] = test: as above; conditions: 72 h
Vero E6 [5] = test: as above; conditions: 72 h
Caco-2 [6] = test: as above; conditions: 72 h
HepG2 [7] = test: as above; conditions: 72 h
A549-ACE2 [8] = test: drug-induced phospholipidosis relative to tamoxifen; higher = more phospholipidosis
U2OS [9] = test: drug sensitivity score (DSS) for viability; higher = more toxic; extreme values may be limits of the assay; conditions: 72 h
Calu-3 [10] = test: as above; conditions: 72 h
Vero E6 [11] = test: as above; conditions: 72 h
Caco-2 [12] = test: as above; conditions: 72 h
HepG2 [13] = test: as above; conditions: 72 h
U2OS [14] = test: relative viability EC50 (midpoint between 100% and the lowest measured viability); higher = less toxic; conditions: 72 h
Calu-3 [15] = test: as above; conditions: 72 h
Vero E6 [16] = test: as above; conditions: 72 h
Caco-2 [17] = test: as above; conditions: 72 h
HepG2 [18] = test: as above; conditions: 72 h
[19] = system: A549-ACE2 infected with SARS-CoV-2; test: cell count relative to DMSO; higher = less toxic; conditions: 24 h
A549-ACE2 [20] = test: phospholipidosis EC50; higher = less potent phospholipidosis inducer; conditions: 24 h

C/C(=N\NC(=S)N1CCC1)c1ccccn1
Conditions	SARS-CoV-2 infection rate, [2] [%]	cell count, [19] [%]	cell viability, Caco-2 [6] [%]	cell viability, Calu-3 [4] [%]	cell viability, HepG2 [7] [%]	cell viability, U2OS [3] [%]	cell viability, Vero E6 [5] [%]	morphology score, [1]
1 nM	–	–	91.8	97.3	104	101	102	–
10 nM	–	–	14.9	102	74.3	101	96.6	–
0.1 µM	104	96	–	–	–	–	–	-0.24
100 nM	–	–	17.9	56.8	5.6	59	70.5	–
0.3 µM	104	95	–	–	–	–	–	-0.09
1 µM	104	89	–	–	–	–	–	-0.19
1000 nM	–	–	39.6	38.4	11.4	28.1	31.3	–
3 µM	68	88	–	–	–	–	–	0.17
10000 nM	–	–	34	25.4	21	15.4	14.5	–

drug-induced phospholipidosis [%], A549-ACE2 [8]
Conditions	0.3 µM	0.833333 µM	3.33333 µM	6.66667 µM	10 µM	30 µM
24 h	11.7	5.99	0.42	-4.61	-12.7	-11.9
48 h	–	–	–	–	-6.55	–

Conditions	drug sensitivity score	relative viability EC50 [µM]
Caco-2 [12]	38.4	–
Caco-2 [17]	–	0.0024
Calu-3 [10]	18	–
Calu-3 [15]	–	0.0907
HepG2 [13]	32.8	–
HepG2 [18]	–	0.0148
U2OS [9]	18.8	–
U2OS [14]	–	0.122
Vero E6 [11]	16.4	–
Vero E6 [16]	–	0.206

CCC[C@@H]1CC2=CC(=O)CC[C@]2(C)[C@H]2CC[C@@]3(C)[C@@H](CC[C@@]3(O)CCC(=O)O)[C@H]12
Conditions	SARS-CoV-2 infection rate, [2] [%]	cell count, [19] [%]	cell viability, Caco-2 [6] [%]	cell viability, Calu-3 [4] [%]	cell viability, HepG2 [7] [%]	cell viability, U2OS [3] [%]	cell viability, Vero E6 [5] [%]	morphology score, [1]
1 nM	–	–	87.4	101	87.5	98.9	94.6	–
10 nM	–	–	98.4	92.5	105	98.3	91	–
100 nM	–	–	95.7	100	93.3	97.2	97.6	–
0.3 µM	98	95	–	–	–	–	–	0.12
1000 nM	–	–	94.9	98.5	92	100	89.1	–
3 µM	105	103	–	–	–	–	–	-0.07
10 µM	97	100	–	–	–	–	–	0.07
10000 nM	–	–	89.8	102	101	93.8	95.4	–
30 µM	96	99	–	–	–	–	–	0.1

drug-induced phospholipidosis [%], A549-ACE2 [8]
Conditions	0.3 µM	0.833333 µM	3.33333 µM	6.66667 µM	10 µM	30 µM
24 h	2.3	-0.41	-0.2	0.45	2.66	5.67
48 h	3.88	0.27	-1.07	1.45	3.16	6.48
72 h	3.28	-0.65	-0.652	0.565	3.59	9.53

Conditions	drug sensitivity score	relative viability EC50 [µM]
Caco-2 [12]	0	–
Caco-2 [17]	–	> 10
Calu-3 [10]	0	–
Calu-3 [15]	–	> 10
HepG2 [13]	0	–
HepG2 [18]	–	> 10
U2OS [9]	0	–
U2OS [14]	–	> 10
Vero E6 [11]	0	–
Vero E6 [16]	–	> 10

CCN1CCN(c2ccc(C(C)(C)NC(=O)c3cc4[nH]c5ccccc5c(=O)c4cc3F)cn2)CC1
Conditions	SARS-CoV-2 infection rate, [2] [%]	cell count, [19] [%]	cell viability, Caco-2 [6] [%]	cell viability, Calu-3 [4] [%]	cell viability, HepG2 [7] [%]	cell viability, U2OS [3] [%]	cell viability, Vero E6 [5] [%]	morphology score, [1]
1 nM	–	–	102	96.4	95.7	99.3	109	–
10 nM	–	–	105	87.8	104	96.5	102	–
100 nM	–	–	107	92.7	103	94.2	102	–
0.3 µM	92	102	–	–	–	–	–	0.33
1000 nM	–	–	116	76.7	77	105	97.2	–
3 µM	34	93	–	–	–	–	–	0.74
10 µM	11	97	–	–	–	–	–	0.74
10000 nM	–	–	86.5	43.3	52.9	25.5	92	–
30 µM	25	72	–	–	–	–	–	0.53

drug-induced phospholipidosis [%], A549-ACE2 [8]
Conditions	0.3 µM	0.833333 µM	3.33333 µM	6.66667 µM	10 µM	30 µM
24 h	6.26	-2.09	-3.71	11.8	31.3	80.5
48 h	4.42	0.5	–	–	–	67.5
72 h	12.4	4.2	–	–	–	–

Conditions	drug sensitivity score	phospholipidosis EC50 [µM]	relative viability EC50 [µM]
A549-ACE2 [20]	–	11.6	–
Caco-2 [12]	0	–	–
Caco-2 [17]	–	–	> 10
Calu-3 [10]	5.6	–	–
Calu-3 [15]	–	–	1.18
HepG2 [13]	5.4	–	–
U2OS [9]	3.7	–	–
U2OS [14]	–	–	3.53
Vero E6 [11]	0	–	–
Vero E6 [16]	–	–	> 10
